Assay results: ChEMBL document CHEMBL5608251, “Virtual Screening and Molecular Docking: Discovering Novel METTL3 Inhibitors” (ACS Med Chem Lett, 2024)

Assays:
[1] = target: METTL3/METTL14 (Homo sapiens) (UniProt Q86U44+Q9HCE5); test: Inhibition of METTL3/METTL14 (unknown origin) using SAM as substrate at 25 uM incubated for 360 mins by luminescence based assay relative to control; format: protein-complex assay
[2] = target: METTL3/METTL14 (Homo sapiens, UniProt Q86U44); test: Inhibition of recombinant METTL3/METTL14 (unknown origin) by radioactivity based assay; format: protein-complex assay
[3] = tested on: NCI-H1975; test: Antiproliferative activity against human NCI-H1975 cells assessed as inhibition of cell growth incubated for 72 hrs by CCK-8 assay; format: functional, cell-based; conditions: NCI-H1975, 72 h
[4] = tested on: PC-9; test: Antiproliferative activity against human PC-9 cells assessed as inhibition of cell growth incubated for 72 hrs by CCK-8 assay; format: functional, cell-based; conditions: PC-9, 72 h

Chain of METTL3/METTL14 (Q86U44 whole entry): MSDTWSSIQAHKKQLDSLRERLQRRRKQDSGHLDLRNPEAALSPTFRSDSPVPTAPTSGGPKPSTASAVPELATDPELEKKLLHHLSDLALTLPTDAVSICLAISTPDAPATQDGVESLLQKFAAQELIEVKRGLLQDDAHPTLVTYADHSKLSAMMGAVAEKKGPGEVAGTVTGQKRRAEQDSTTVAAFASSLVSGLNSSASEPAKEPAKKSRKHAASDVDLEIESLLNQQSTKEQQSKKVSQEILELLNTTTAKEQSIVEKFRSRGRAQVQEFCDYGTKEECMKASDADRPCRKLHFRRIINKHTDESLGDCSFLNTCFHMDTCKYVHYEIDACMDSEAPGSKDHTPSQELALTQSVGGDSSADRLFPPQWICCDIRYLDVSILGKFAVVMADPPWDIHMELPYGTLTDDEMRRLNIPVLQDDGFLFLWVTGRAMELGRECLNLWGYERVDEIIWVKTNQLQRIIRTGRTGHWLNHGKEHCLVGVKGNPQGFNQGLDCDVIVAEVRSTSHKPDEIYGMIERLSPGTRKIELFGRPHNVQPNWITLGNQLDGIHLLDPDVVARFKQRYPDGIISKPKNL
Chain of METTL3/METTL14 (Q9HCE5 whole entry, further chain): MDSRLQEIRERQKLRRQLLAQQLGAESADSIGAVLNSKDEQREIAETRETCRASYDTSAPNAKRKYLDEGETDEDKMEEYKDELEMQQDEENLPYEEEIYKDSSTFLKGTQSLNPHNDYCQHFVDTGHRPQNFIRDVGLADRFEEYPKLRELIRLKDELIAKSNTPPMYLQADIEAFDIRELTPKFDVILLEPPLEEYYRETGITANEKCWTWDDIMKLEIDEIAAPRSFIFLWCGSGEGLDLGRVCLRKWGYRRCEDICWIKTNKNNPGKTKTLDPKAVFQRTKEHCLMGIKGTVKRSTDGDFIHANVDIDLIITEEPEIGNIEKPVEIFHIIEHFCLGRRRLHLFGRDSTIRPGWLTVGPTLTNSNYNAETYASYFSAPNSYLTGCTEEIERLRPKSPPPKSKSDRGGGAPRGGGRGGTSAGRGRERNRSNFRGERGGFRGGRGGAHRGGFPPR

| SMILES | inhibition [1] | other results |
| --- | --- | --- |
| CC(=O)Nc1ccc(C)cc1NC(=O)CCC1COc2ccccc2O1 (stereo not given) | 38.9% |  |
| O=C(CNC(=O)c1ccco1)N/N=C/c1cc(Br)cc(Br)c1OC(=O)c1cccc(F)c1 | 35.3% |  |
| CC(=O)c1ccc(NC(=O)CSc2ncc(CO)n2Cc2ccc(F)cc2)cc1 | 3.39% |  |
| COc1ccc(NC(=O)CCn2ccc(=O)[nH]c2=O)cc1 | 22.4% |  |
| COc1ccc(NC(=O)CCn2ccc(=O)[nH]c2=O)c(O)c1 | 30.5% |  |
| CCn1c(SCC(=O)Nc2ccc(C)c(F)c2)nc2c3cc(OC)ccc3n(C)c2c1=O | 32.1% |  |
| Nc1ncnc2c1ncn2[C@@H]1O[C@H](C[C@@H](N)CC[C@H](N)C(=O)O)[C@@H](O)[C@H]1O [SINEFUNGIN] |  | IC50 [2]: 2.36 µM |
| COc1ccc(C(=O)Nc2cccc(OCc3cc(=O)n4ccc(C)cc4c3)c2)cc1OC | 25.1% |  |
| COc1ccc(-c2nc(C[S+]([O-])CC(=O)NCc3ccco3)c(C)o2)cc1 (stereo not given) | 32.5% |  |
| CNC(=O)Cn1c(CO)cnc1SCC(=O)Nc1ccc(C(C)=O)cc1 | 31.1% |  |
| CCn1c(N2CCCC(C(=O)Nc3ccc4[nH]c(=O)[nH]c4c3)C2)cc(=O)n(C)c1=O (stereo not given) | 36.7% |  |
| O=C(CCSc1nc(-c2ccco2)cc(C(F)(F)F)n1)NCc1ccco1 | 36.3% |  |
| CCOC(=O)CC(=O)CSc1nc2c(sc(=S)n2-c2ccc(C(=O)OCC)cc2)c2nc3ccccc3n12 | 46.2% | IC50 [3]: 197 µM; IC50 [4]: 213 µM |
| COc1ccc(NC(=O)Cn2cc(C(=O)c3ccc(C)cc3)c(=O)c3cc(OC)c(OC)cc32)cc1OC | 24.1% |  |
| O=C1c2ccc(Oc3cccc(Oc4ccc5c(c4)C(=O)N(c4ccc(O)cc4)C5=O)c3)cc2C(=O)N1c1ccc(O)cc1 | 65.6% | IC50 [3]: 180 µM; IC50 [4]: 216 µM |
| O=C(CCCn1c(SCC(=O)Nc2ccc(F)cc2)nc2c(sc3ccccc32)c1=O)NCCO | 6.31% |  |
